The values that follow are results of earlier work, collected in patent US20180271812A1, “CALCIUM BASED CLINICAL MATERIAL WITH ANTIMICROBIAL PROPERTIES AND METHOD OF FORMING FOR PREVENTION OR TREATMENT OF INFECTION” (Biocomposites Limited, priority 2017, published 2018).

In one data set the test system is Staphylococcus aureus. The conditions noted are these: breakpoint, EUCAST clinical breakpoints v7.0 (Jan 2017).
For data set [1] the following is noted: background statement, no test described.
Another data set has as its system Pseudomonas aeruginosa. The conditions noted are these: breakpoint.
[2] abbreviates: American Society for Microbiology Kirby-Bauer disk diffusion susceptibility test protocol.
[3] abbreviates: EUCAST clinical breakpoints v7.0 (Jan 2017).

Read-outs that look alike come from different tables or passages of the source.

In the case of `NCC[C@H](O)C(=O)N[C@@H]1C[C@H](N)[C@@H](O[C@H]2O[C@H](CN)[C@@H](O)[C@H](O)[C@H]2O)[C@H](O)[C@H]1O[C@H]1O[C@H](CO)[C@@H](O)[C@H](N)[C@H]1O` [Amikacin], in the data set on Staphylococcus aureus, the “ZOI against Staphylococcus aureus, Resistant” value is reported as below 16 mm and the “ZOI against Staphylococcus aureus, Susceptible” value is given as at least 18 mm.
Consider `C/C=C/C=C/C(=O)O` [Sorbic acid], for which, in data set [1], the pH is 4.76.
With `CN(C)c1cc(NC(=O)CNC(C)(C)C)c(O)c2c1C[C@H]1C[C@H]3[C@H](N(C)C)C(O)=C(C(N)=O)C(=O)[C@@]3(O)C(O)=C1C2=O` [Tigecycline], in the data set with Staphylococcus aureus, the “ZOI against Staphylococcus aureus, Resistant” value was below 18 mm and the “ZOI against Staphylococcus aureus, Susceptible” value was at least 18 mm.
Consider `NC[C@H]1O[C@H](O[C@H]2[C@H](O)[C@@H](O[C@H]3O[C@H](CO)[C@@H](O)[C@H](N)[C@H]3O)[C@H](N)C[C@@H]2N)[C@H](N)C[C@@H]1O` [Tobramycin], for which, in the data set with Staphylococcus aureus, the “ZOI against Staphylococcus aureus, Resistant” value is recorded as below 18 mm and the “ZOI against Staphylococcus aureus, Susceptible” value was at least 18 mm. For the same compound, in the data set with Pseudomonas aeruginosa (setting [2]), the “ZOI against Pseudomonas aeruginosa, Resistant” value is reported as at most 12 mm and the “ZOI against Pseudomonas aeruginosa, Susceptible” value is at least 15 mm. Further, in the data set on Pseudomonas aeruginosa (setting [3]), the “ZOI against Pseudomonas aeruginosa, Resistant” value is below 16 mm and the “ZOI against Pseudomonas aeruginosa, Susceptible” value is at least 16 mm.
For the compound Gentamicin, in the data set with Staphylococcus aureus, the “ZOI against Staphylococcus aureus, Resistant” value is below 18 mm and the “ZOI against Staphylococcus aureus, Susceptible” value is at least 18 mm. For the same compound, in the data set with Pseudomonas aeruginosa (setting [2]), the “ZOI against Pseudomonas aeruginosa, Resistant” value was at most 12 mm and the “ZOI against Pseudomonas aeruginosa, Susceptible” value is recorded as at least 15 mm. In the data set with Pseudomonas aeruginosa (setting [3]), the “ZOI against Pseudomonas aeruginosa, Resistant” value was below 15 mm and the “ZOI against Pseudomonas aeruginosa, Susceptible” value is at least 15 mm.
